US6949250B2, “Selective algaecides for control of cyanochloronta” (The United States of America as represented by the …, priority 2002, dated 2005)
Converted amounts (≈) assume the structure as drawn.

How the values were obtained:
[1] = tested on: Selenastrum capricornutum; assay: Rapid bioassay screening for selective algicides (LOEC, LCIC); format: cell-based; settings: rapid screening; for MIC / minimal effective concentration: Selenastrum capricornutum; for MIC: read-out: LCIC (lowest-complete-inhibition concentration), Selenastrum capricornutum; for minimal effective concentration: read-out: LOEC (lowest-observed-effect concentration), Selenastrum capricornutum
Excerpt: (§1) These were screened in the laboratory by the method of Schrader et al. (K. K. Schrader, M. Q. de Regt, C. S. Tucker and S. O. Duke, A rapid bioassay for selective algicides. Weed Technol. (1997), vol. 11, pp. 767-774) for algicidal activity.
(§2) The anthraquinone derivatives were screened for selective toxicity towards Oscillatoria perornata, previously isolated from a Mississippi catfish pond, using the method of Schrader et al. (1997). The green alga Selenastrum capricornutum (obtained from the United States Environmental Protection Agency, Corvallis, Oreg.) was used as the representative green algal species in the bioassay since it is a common species found in southeastern United States catfish ponds. Absorbance readings were graphed, and graphs were used to determine the LOEC (lowest-observed-effect concentration) and the LCIC (lowest-complete-inhibition concentration) for each anthraquinone analog. In addition, a 96-hour 50% inhibition concentration (IC50) was determined for DNA1-19-1 and DNA2-59-1 by using the method described by Schrader et al. (1998b). Stock solutions of DNA1-19-1 and DNA2-59-1 were prepared so that final concentrations screened for 96-hour IC50 determinations were as follows: 1) 0, 0.01, 0.033, 0.1, 0.333, 1.0, 3.3, and 10.0 μM DNA1-19-1 for both O. perornata and S. capricornutum; 2) 0, 0.003, 0.01, 0.033, 0.1, 0.333, 1.0, and 3.333 μM DNA2-59-1 for O. perornata; and 3) 0, 0.1, 0.333, 1.0, 3.333, 10.0, 33.333, and 100.0 μM DNA2-59-1 for S. capricornutum. Estimation of the IC50 was determined by plotting 96-hour absorbance readings against logarithmic dilution values of the anthraquinone analogs. The screening results of the anthraquinone derivatives and commercially available analogs of anthraquinone are presented in Tables 1 and 2, respectively. The results in Table 1 reveal that DNA1-19-1 and DNA2-59-1 are the most promising analogs since these two compounds had the lowest LOEC and LCIC values for O. perornata (10 nM and 100 nM, respectively). Based upon IC50 results in Table 3, DNA2-59-1 appears to be more toxic and selective towards O. perornata than DNA1-19-1.
as §2, with “(A rapid bioassay for selective algicides. Weed Technol. (1997), vol. 11, pp. 767-774).” for “(1997).”, “(K. K. Schradar, M. Q. de Regt, P. D. Tidwell, C. S. Tucker and S. O. Duke, Selective growth inhibition of the musty-odor producing cyanobacterium Oscillatoria cf. chalybea by natural compounds. Bull. Environ. Contam. Toxicol. (1998a), vol.60, pp. 651-658).” for “(1998b).”, “The screening results of the anthraquinone derivatives and commercially available analogs of anthraquinone are presented in Tables 1 and 2, respectively. The results in Table 1 reveal that DNA1-19-1 and DNA2-59-1 are the most promising analogs since these two compounds had the lowest LOEC and LCIC values for O. perornata (10 nM and 100 nM, respectively). Based upon IC50 results in Table 3, DNA2-59-1 appears to be more toxic and selective towards O. perornata than DNA1-19-1.” left out

Oscillatoria perornata = assay: as above; format: cell-based; settings: rapid screening; for MIC / minimal effective concentration: Planktothrix perornata; for MIC: read-out: LCIC (lowest-complete-inhibition concentration), Oscillatoria perornata; for minimal effective concentration: read-out: LOEC (lowest-observed-effect concentration), Oscillatoria perornata
Excerpt: as §1, §2
as §2, with “(A rapid bioassay for selective algicides. Weed Technol. (1997), vol. 11, pp. 767-774).” for “(1997).”, “(K. K. Schradar, M. Q. de Regt, P. D. Tidwell, C. S. Tucker and S. O. Duke, Selective growth inhibition of the musty-odor producing cyanobacterium Oscillatoria cf. chalybea by natural compounds. Bull. Environ. Contam. Toxicol. (1998a), vol.60, pp. 651-658).” for “(1998b).”, “The screening results of the anthraquinone derivatives and commercially available analogs of anthraquinone are presented in Tables 1 and 2, respectively. The results in Table 1 reveal that DNA1-19-1 and DNA2-59-1 are the most promising analogs since these two compounds had the lowest LOEC and LCIC values for O. perornata (10 nM and 100 nM, respectively). Based upon IC50 results in Table 3, DNA2-59-1 appears to be more toxic and selective towards O. perornata than DNA1-19-1.” left out

SMILES | MIC [1] [µM] | minimal effective concentration [1] [µM] | MIC (Oscillatoria perornata) [µM] | minimal effective concentration (Oscillatoria perornata) [µM] | LCIC (lowest-complete-inhibition concentration), Selenastrum capricornutum [1] | LOEC (lowest-observed-effect concentration), Selenastrum capricornutum [1] | LCIC (lowest-complete-inhibition concentration), Oscillatoria perornata (Oscillatoria perornata) | LOEC (lowest-observed-effect concentration), Oscillatoria perornata (Oscillatoria perornata)
COCCOCCOCCOc1cccc2c1C(=O)c1ccccc1C2=O [DNA3-11-1, 1-[2-[2-(2-Methoxyethoxy)ethoxy]ethoxy]-9,10-anthraquinone] | > 100 | > 100 | 10 (≈ 3.7 µg/mL) | 10 | – | – | – | –
COCCOc1cccc2c1C(=O)c1ccccc1C2=O [DNA3-13-1, 1-(2-Methoxyethoxy)-9,10-anthraquinone] | > 100 | 0.01 | 10 (≈ 2.82 µg/mL) | 10 | – | – | – | –
O=C1c2ccccc2C(=O)c2c(OCCOCCOCCO)cccc21 [DNA3-15-1, 1-[2-[2-(2-Hydroxyethoxy)ethoxy]ethoxy]-9,10-anthraquinone] | > 100 | 0.01 | 10 (≈ 3.56 µg/mL) | 10 | – | – | – | –
CCNCc1ccc2c(c1)C(=O)c1ccccc1C2=O.O=P(O)(O)O [DNA3-17-1, 2-[Methylamino-N-(ethyl)]-9,10-anthraquinone monophosphate] | – | – | – | – | 10,000 nM | 10,000 nM | 1,000 nM | 1,000 nM
CNCc1ccc2c(c1)C(=O)c1ccccc1C2=O.O=P(O)(O)O [DNA3-19-1, 2-[Methylamino-N-(methyl)]-9,10-anthraquinone monophosphate] | – | – | – | – | 10,000 nM | 10,000 nM | 1,000 nM | 1,000 nM
CCCNCc1ccc2c(c1)C(=O)c1ccccc1C2=O.O=P(O)(O)O [DNA3-31-1, 2-[Methylamino-N-(propyl)]-9,10-anthraquinone monophosphate] | – | – | – | – | 10,000 nM | 10,000 nM | 1,000 nM | 1,000 nM
CC(C)(C)NCc1ccc2c(c1)C(=O)c1ccccc1C2=O.O=P(O)(O)O [DNA3-33-1, 2-[Methylamino-N-(1′1′-dimethylethyl)]-9,10-anthraquinone monophosphate] | – | – | – | – | 10,000 nM | 1,000 nM | 1,000 nM | 1,000 nM
O=C1c2ccccc2C(=O)c2cc(CNC3CC3)ccc21.O=P(O)(O)O [DNA3-35-1, 2-[Methylamino-N-(cyclopropyl)]-9,10-anthraquinone monophosphate] | – | – | – | – | 100,000 nM | 10,000 nM | 1,000 nM | 1,000 nM
O=C1c2ccccc2C(=O)c2c(OCCOCCOCCOCCOCCO)cccc21 [DNA3-49-1, 1-[2-[2-[2-[2-(2-Hydroxyethoxy)ethoxy]ethoxy]ethoxy]ethoxy]-9,10-anthraquinone] | > 100 | > 100 | 10 (≈ 4.44 µg/mL) | 1 | – | – | – | –
O=C1c2ccccc2C(=O)c2cc(OCCOCCOCCOCCOCCO)ccc21 [DNA3-51-1, 2-[2-[2-[2-[2-(2-Hydroxyethoxy)ethoxy]ethoxy]ethoxy]ethoxy]-9,10-anthraquinone] | > 100 | > 100 | 100 (≈ 44.4 µg/mL) | 0.1 | – | – | – | –
COCCOCCOCCOCCOc1cccc2c1C(=O)c1ccccc1C2=O [DNA3-53-1, 1-[2-[2-[2-(2-Methoxyethoxy)ethoxy]ethoxy]ethoxy]-9,10-anthraquinone] | > 100 | 100 | 100 (≈ 41.4 µg/mL) | 10 | – | – | – | –
